For 14 molecules, Ki results are on record in US9273036B2, “Oxindole derivatives carrying an oxetane substituent and use thereof for treating vasopressine-related diseases” (AbbVie Deutschland GmbH & Co. KG, priority 2013, dated 2016).

The term Ki denotes a dissociation constant, usually derived from enzyme kinetics or from competition with a known ligand.

The target of this assay is T1, human vasopressin V1b receptor (Homo sapiens, UniProt P47901).
T1 sequence (P47901 1-424): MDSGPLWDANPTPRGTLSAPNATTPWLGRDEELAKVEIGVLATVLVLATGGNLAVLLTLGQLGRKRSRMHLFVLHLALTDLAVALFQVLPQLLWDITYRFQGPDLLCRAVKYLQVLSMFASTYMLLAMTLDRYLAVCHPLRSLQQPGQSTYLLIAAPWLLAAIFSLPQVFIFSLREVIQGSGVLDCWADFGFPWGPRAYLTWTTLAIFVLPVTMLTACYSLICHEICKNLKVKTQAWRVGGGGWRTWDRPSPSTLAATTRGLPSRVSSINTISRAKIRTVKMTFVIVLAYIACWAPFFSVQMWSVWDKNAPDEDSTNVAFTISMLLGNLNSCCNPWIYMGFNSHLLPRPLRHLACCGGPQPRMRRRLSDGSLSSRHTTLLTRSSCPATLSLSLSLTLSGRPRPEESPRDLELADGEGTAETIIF
Description: biochemical.
`CCOc1ncccc1[C@]1(NC(=O)N2CCN(C3CCN(C4COC4)CC3)CC2)C(=O)N(S(=O)(=O)c2ccc(OC)cc2OC)c2ccc(C#N)cc21` [Example 1, (S)—N-(5-cyano-1-((2,4-dimethoxyphenyl)sulfonyl)-3-(2-ethoxypyridin-3-yl)-2-oxoindolin-3-yl)-4-(1-(oxetan-3-yl)piperidin-4-yl)piperazine-1-carboxamide]: the Ki was less than 1 nM. Then `CCOc1ncccc1C1(NC(=O)N2CCN(C3CCN(C4COC4)CC3)CC2)C(=O)N(S(=O)(=O)c2ccc(OC)cc2)c2ccc(C#N)cc21` (centres unmarked) [Example 3, N-(5-cyano-3-(2-ethoxypyridin-3-yl)-1-((4-methoxyphenyl)sulfonyl)-2-oxoindolin-3-yl)-4-(1-(oxetan-3-yl)piperidin-4-yl)piperazine-1-carboxamide], with 1 to 10 nM; and `CCOc1ncccc1C1(NC(=O)N2CCN(C3CCN(C4COC4)CC3)CC2)C(=O)N(S(=O)(=O)c2ccccc2)c2ccc(C#N)cc21` (centres unmarked) [Example 4, N-(5-cyano-3-(2-ethoxypyridin-3-yl)-2-oxo-1-(phenylsulfonyl)indolin-3-yl)-4-(1-(oxetan-3-yl)piperidin-4-yl)piperazine-1-carboxamide], with 10 to 100 nM; and `CCOc1ncccc1[C@]1(NC(=O)N2CCN(C3CCN(C4COC4)CC3)CC2)C(=O)N(S(=O)(=O)c2ccc(C#N)cc2)c2ccc(C#N)cc21` [Example 5, (S)—N-(5-cyano-1-((4-cyanophenyl)sulfonyl)-3-(2-ethoxypyridin-3-yl)-2-oxoindolin-3-yl)-4-(1-(oxetan-3-yl)piperidin-4-yl)piperazine-1-carboxamide], with 1 to 10 nM. Molecule `CCOc1ncccc1[C@]1(NC(=O)N2CCN(C3CCN(C4COC4)CC3)CC2)C(=O)N(S(=O)(=O)c2ccc(OC)cc2F)c2ccc(C#N)cc21` [Example 6, (S)—N-(5-cyano-3-(2-ethoxypyridin-3-yl)-1-((2-fluoro-4-methoxyphenyl)sulfonyl)-2-oxoindolin-3-yl)-4-(1-(oxetan-3-yl)piperidin-4-yl)piperazine-1-carboxamide] came in with a Ki of 1 to 10 nM.

Regarding `CCOc1ncccc1[C@]1(NC(=O)N2CCN(C3CCN(C4COC4)CC3)CC2)C(=O)N(S(=O)(=O)c2cc(F)c(OC)cc2OC)c2ccc(C#N)cc21` [Example 8, (S)—N-(5-cyano-3-(2-ethoxypyridin-3-yl)-1-((5-fluoro-2,4-dimethoxyphenyl)sulfonyl)-2-oxoindolin-3-yl)-4-(1-(oxetan-3-yl)piperidin-4-yl)piperazine-1-carboxamide], the Ki was in the range of 1 to 10 nM. As for `CCOc1ncccc1[C@]1(NC(=O)N2CCN(C3CCN(C4COC4)CC3)CC2)C(=O)N(S(=O)(=O)c2ccc(OC)cc2OC)c2cc(F)c(F)cc21` [Example 9, (S)—N-(1-((2,4-dimethoxyphenyl)sulfonyl)-3-(2-ethoxypyridin-3-yl)-5,6-difluoro-2-oxoindolin-3-yl)-4-(1-(oxetan-3-yl)piperidin-4-yl)piperazine-1-carboxamide], the Ki was 1 to 10 nM. The molecule `CCOc1ncccc1[C@]1(NC(=O)N2CCN(C3CCN(C4COC4)CC3)CC2)C(=O)N(S(=O)(=O)c2ccc(OC)cc2OC)c2ccc(Cl)cc21` [Example 10, (S)—N-(5-chloro-1-((2,4-dimethoxyphenyl)sulfonyl)-3-(2-ethoxypyridin-3-yl)-2-oxoindolin-3-yl)-4-(1-(oxetan-3-yl)piperidin-4-yl)piperazine-1-carboxamide] displayed a Ki of less than 1 nM.

In the case of `CCOc1ncccc1[C@]1(NC(=O)N2CCC(N3CCN(C4COC4)CC3)CC2)C(=O)N(S(=O)(=O)c2ccc(C#N)cc2)c2ccc(C#N)cc21` [Example 12, (S)—N-(5-cyano-1-((4-cyanophenyl)sulfonyl)-3-(2-ethoxypyridin-3-yl)-2-oxoindolin-3-yl)-4-(4-(oxetan-3-yl)piperazin-1-yl)piperidine-1-carboxamide], the Ki fell in the range of 10 to 100 nM. Regarding `CCOc1ncccc1[C@]1(NC(=O)N2CCC(N3CCN(C4COC4)CC3)CC2)C(=O)N(S(=O)(=O)c2ccc(OC)cc2)c2ccc(C#N)cc21` [Example 13, (S)—N-(5-cyano-3-(2-ethoxypyridin-3-yl)-1-((4-methoxyphenyl)sulfonyl)-2-oxoindolin-3-yl)-4-(4-(oxetan-3-yl)piperazin-1-yl)piperidine-1-carboxamide], the Ki is 10 to 100 nM. The molecule `CCOc1ncccc1[C@]1(NC(=O)N2CCC(N3CCN(C4COC4)CC3)CC2)C(=O)N(S(=O)(=O)c2ccc(OC)cc2OC)c2ccc(Cl)cc21` [Example 14, (S)—N-(5-chloro-1-((2,4-dimethoxyphenyl)sulfonyl)-3-(2-ethoxypyridin-3-yl)-2-oxoindolin-3-yl)-4-(4-(oxetan-3-yl)piperazin-1-yl)piperidine-1-carboxamide] registered a Ki of 1 to 10 nM. Then `COc1ccc(S(=O)(=O)N2C(=O)C(NC(=O)N3CCN(C4CCN(C5COC5)CC4)CC3)(c3cccnc3OC)c3cc(C#N)ccc32)c(OC)c1` (centres unmarked) [Example 15, N-(5-cyano-1-((2,4-dimethoxyphenyl)sulfonyl)-3-(2-methoxypyridin-3-yl)-2-oxoindolin-3-yl)-4-(1-(oxetan-3-yl)piperidin-4-yl)piperazine-1-carboxamide], with 1 to 10 nM. Molecule `CCOc1ncccc1[C@]1(NC(=O)N2CCC(N3C[C@@H]4C[C@H]3CN4C3COC3)CC2)C(=O)N(S(=O)(=O)c2ccc(OC)cc2OC)c2ccc(C#N)cc21` [Example 17, N—((S)-5-cyano-1-((2,4-dimethoxyphenyl)sulfonyl)-3-(2-ethoxypyridin-3-yl)-2-oxoindolin-3-yl)-4-((1S,4S)-5-(oxetan-3-yl)-2,5-diazabicyclo[2.2.1]heptan-2-yl)piperidine-1-carboxamide] returned a Ki of 10 to 100 nM. Then `CCOc1ncccc1[C@]1(NC(=O)N2CCN(C3CCN(C4COC4)CC3)CC2)C(=O)N(S(=O)(=O)c2ccc(OC)c(C)c2C)c2ccc(C#N)cc21` [Example 18, (S)—N-(5-cyano-3-(2-ethoxypyridin-3-yl)-1-((4-methoxy-2,3-dimethylphenyl)sulfonyl)-2-oxoindolin-3-yl)-4-(1-(oxetan-3-yl)piperidin-4-yl)piperazine-1-carboxamide], with 10 to 100 nM.
